Laboratory results taken from US10604476B2, “Fluorinated amide derivatives and their uses as therapeutic agents” (Trillium Therapeutics Inc., priority 2015, dated 2020).

Experiments:
mechanical allodynia = assay: Sciatic ligation model in rats (neuropathic pain); format: in vivo, rat; conditions: 23 mg/kg i.p.
Text: Animals will be anesthetized with sodium pentobarbital and the depth of anesthesia monitored by their response to a tail pinch and observation of the depth of respiration. Sterile technique will be used throughout the surgery. The upper thigh will be shaved and wiped off with ethanol and betadine. A small incision will then be made in the skin. The underlying muscle of the upper thigh will be separated and the sciatic nerve exposed. The nerve is separated from the surrounding connective tissue and slightly elevated by a pair of fine, curved forceps. Approximately ⅓ to ½ of the nerve is tied off by passing a needle (7.0) and nylon suture through the nerve. The muscle and skin incision are closed off separately with 5.0 suture and the animals kept warm until they have recovered from the anesthesia. […] The rats will be closely monitored daily for the development of infection or untoward effects of the surgery in which case the animals will be immediately euthanized. […] After 30-60 minutes in which to acclimate, a baseline mechanical sensitivity is determined. […] This is repeated until a 50% threshold for withdrawal can be determined. […] Testing will be conducted at the time-to-peak effect of the AED as determined in the acute seizure model (Z. Seltzer et al. Pain 43 1990, 205-218).

cold allodynia = assay: Spinal nerve injury (SNI) model, acetone test; format: in vivo, rat
Text: The SNI model of neuropathic pain was developed in rats using the procedure described by Decostered and Woolf, Pain 2000, 87: 149-158. Under isoflurane anesthesia, the skin on the lateral surface of the thigh was incised and a section was made directly through the biceps femoris muscle exposing the sciatic nerve and its three terminal branches: the sural, common peroneal and tibial nerves. The common peroneal and the tibial nerves were tight-ligated with 6-0 suture and sectioned distal to the ligation, removing 2-4 mm of the distal nerve stump. Extreme care was taken to avoid any contact with or stretching of the intact sural nerve. Following surgery, hemostasis was confirmed and the muscles were sutured in layers using 4-0 suture and the skin was closed with 4-0 suture and metal clips. Cold allodynia was assessed by using the acetone test. In this test, 25 μl of acetone is sprayed on to the plantar surface of the hind paw. Evaporation of acetone causes cooling of the skin. The cold stimulus sets up nociceptive responses from the injured paw as evidenced by paw lifting, paw licking and grooming. The duration of the nociceptive responses is noted.

[1] = test system: fully kindled (stage 5) seizures, amygdala kindled rat; assay: Amygdala kindled rat model; format: in vivo; conditions: <60 mg/kg i.p.
Text: Amygdala kindling model is an animal model for complex partial seizures, which is the most common type of epilepsy in adults and is often drug resistant.

[2] = test system: lithium pilocarpine-induced status epilepticus; assay: Pilocarpine-induced status epilepticus rat model; format: in vivo
Procedure: While most seizures are often short duration events that resolve spontaneously, status epilepticus (SE) events are characterized by continuous epileptic seizures or a series of seizures lasting longer than 30 minutes. Typically, treatment of SE requires emergency room intervention with either diazepam or lorazepam, immediately followed by phenytoin or phenobarbital. However, up to 15% of SE episodes can be refractory to these conventional therapies, thus identifying novel treatments that can be applied in the drug-refractory period, i.e. benzodiazepine-resistant SE, is of critical value to the clinical management of SE. The lithium-pilocarpine model is used to study the effects of a test compound on benzodiazepine-resistant SE. Sprague Dawley rats (n=8 per group; 100-150 g) are injected with lithium chloride (LiCl) solution (127 mg/kg). Animals are then used for the lithium pilocarpine-induced SE test 20-24 hours following LiCl injection. On the day of the test, animals are weighed and then injected with pilocarpine (50 mg/kg; i.p.) before being placed in an observation cage. In the initial convulsive-SE behavioral observation studies, adult rats receive a dose of the investigational compound, which was found in rat MES quantification to produce MMI. […] The ED50 and ED97 in this behavioral assay (30 minute time point) are determined for promising investigational compounds.

Compound	mechanical allodynia compared to vehicle controls (mechanical allodynia)	cold allodynia in the neuropathic rats (cold allodynia)	suppression of fully kindled (stage 5) seizures compared to vehicle controls [1]	effect in chemically induced SE, administered 30 minutes after the appearance of seizures ([2]; 130 mg/kg)	effect in chemically induced SE, administered at the time of the chemical insult ([2]; time zero, 65 mg/kg)
NC(=O)COc1cc(C(F)(F)F)cc(C(F)(F)F)c1 [I(F), 2-[3,5 bis(trifluoromethyl)-phenoxy]acetamide;]	significant decrease	significantly reduced	–	–	–
C[C@@H](Oc1cc(Cl)cc(C(F)(F)F)c1)C(N)=O [I(D), (2R)-2-[3-chloro-5-(trifluoromethyl)-phenoxy]propanamide]	–	–	dose related suppression	effective	effective
